Biological target: T1, human PRMT1 (Homo sapiens, UniProt Q99873)
T1 construct: GST-tagged PRMT1; made in house; host or cells: High Five insect cells (baculovirus)
Experiment: PRMT1 Biochemical Assay
Conditions: biochemical evaluation, peptide substrate
Text: S-adenosylmethionine (SAM), S-adenosylhomocysteine (SAH), bicine, Tween20, dimethylsulfoxide (DMSO), bovine skin gelatin (BSG), and Tris(2-carboxyethyl)phosphine hydrochloride solution (TCEP) were purchased from Sigma-Aldrich at the highest level of purity possible. ^3H-SAM was purchase from American Radiolabeled Chemicals with a specific activity of 80 Ci/mmol. 384-well streptavidin Flashplates were purchased from PerkinElmer.
Peptide representative of human histone H4 residues 36-50 was synthesized with an N-terminal linker-affinity tag motif and a C-terminal amide cap by 21st Century Biochemicals. The peptide was purified by high-performance liquid chromatography (HPLC) to greater than 95% purity and confirmed by liquid chromatography mass spectrometry (LC-MS). The sequence was Biot-Ahx-[…]-amide (SEQ ID NO.: 1). […]
The assays were all performed in a buffer consisting of 20 mM Bicine (pH=7.6), 1 mM TCEP, 0.005% BSG, and 0.002% Tween 20, prepared on the day of use. […] The plates were then read in a PerkinElmer TopCount plate reader to measure the quantity of ^3H-labeled peptide bound to the Flashplate surface, measured as disintegrations per minute (dpm) or alternatively, referred to as counts per minute (cpm). […]

T1 sequence (Q99873 with tags, fused parts or gaps): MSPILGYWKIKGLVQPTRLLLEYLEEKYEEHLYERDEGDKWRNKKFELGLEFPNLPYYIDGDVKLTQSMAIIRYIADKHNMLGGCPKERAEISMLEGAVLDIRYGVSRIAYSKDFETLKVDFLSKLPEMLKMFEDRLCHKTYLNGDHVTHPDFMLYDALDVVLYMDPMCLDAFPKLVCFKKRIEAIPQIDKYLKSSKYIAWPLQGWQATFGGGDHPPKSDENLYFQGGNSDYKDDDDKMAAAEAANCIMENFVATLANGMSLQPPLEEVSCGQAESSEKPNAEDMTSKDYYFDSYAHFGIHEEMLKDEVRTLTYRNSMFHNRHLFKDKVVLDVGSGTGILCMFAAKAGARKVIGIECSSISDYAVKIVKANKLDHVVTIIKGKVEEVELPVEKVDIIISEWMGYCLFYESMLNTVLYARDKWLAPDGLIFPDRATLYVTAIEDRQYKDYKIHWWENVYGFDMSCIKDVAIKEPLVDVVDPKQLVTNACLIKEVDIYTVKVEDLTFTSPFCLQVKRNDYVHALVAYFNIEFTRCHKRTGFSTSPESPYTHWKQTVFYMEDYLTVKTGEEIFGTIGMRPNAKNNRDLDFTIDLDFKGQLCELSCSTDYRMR

For `CN(CCN)Cc1n[nH]c2cccc(OCc3ccccc3)c12` [Compound 1], which IC50 is on record?
Its IC50 is ≤ 100 nM.

Source: patent US9943504B2, “Arginine methyltransferase inhibitors and uses thereof” (Epizyme, Inc., priority 2013, dated 2018)
